Experimental data as given in patent US20080300258A1, “ANHYDROUS CIPROFLOXACIN HYDROCHLORIDE” (priority 2007, published 2008).

Conditions: eight weeks of storage at 40 degrees C., relative humidity 75%

For `O=C(O)c1cn(C2CC2)c2cc(N3CCNCC3)c(F)cc2c1=O` [1-cyclopropyl-6-fluoro-1,4-dihydro-4-oxo-7-(1-piperazinyl)-3-quinolinecarboxylic acid], the decomposition on storage was “no significant decomposition was observed” and the “water intake on storage” value was “No water intake was observed”.
